According to patent publication US9783536B2, “Nitrogen-containing heterocyclic compound or salt thereof” (FUJIFILM Corporation, priority 2013, dated 2017):
Like-named read-outs stand apart in the source and are kept apart here.

What was measured:
[1] = biological target: T1, GST fusion human ERK2 protein (Homo sapiens, UniProt P28482); assay: ERK2 enzyme assay (2); type: biochemical; conditions: ERK2 enzyme assay (2); read-out: ERK2 enzyme inhibitory activity (2)
T1 construct: purchased Carna Biosciences, Inc; host or cells: E. coli expression system
T1 sequence (P28482 whole entry, the tested form may be a part): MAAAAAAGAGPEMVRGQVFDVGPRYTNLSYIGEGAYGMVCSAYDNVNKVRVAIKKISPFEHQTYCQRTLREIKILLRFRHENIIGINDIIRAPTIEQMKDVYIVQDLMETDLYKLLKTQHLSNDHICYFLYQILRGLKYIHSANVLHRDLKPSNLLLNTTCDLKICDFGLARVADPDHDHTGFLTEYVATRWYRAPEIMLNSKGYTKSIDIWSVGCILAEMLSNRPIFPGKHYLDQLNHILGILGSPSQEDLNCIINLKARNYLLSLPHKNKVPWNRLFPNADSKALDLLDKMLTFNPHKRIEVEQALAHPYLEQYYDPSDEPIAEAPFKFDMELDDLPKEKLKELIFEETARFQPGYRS
Outline: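 IC50 values come from mobility-shift measurement of phosphorylated versus unphosphorylated 5-FAM peptide substrate after EDTA quench. Beforehand, compound and 1.25 nmol/L E. coli-expressed GST–human ERK2 stood 15 min at room temperature (pH 7.5), then 1 mmol/L ATP and 4.25 μmol/L substrate (final) were added for 120 min at 25 °C.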

[2] = system: CHO-K1 cells; assay: CHO cell toxicity test; type: cell-based, Chinese hamster; conditions: Cricetulus griseus, read-out: IC50 value (concentration at which the number of viable cells was suppressed to 50% or less)
Protocol: In a CHO cell toxicity test, the following was used.
Cell: CHO-K1 cells (derived from Chinese hamster ovary) Test medium: F-12 MEDIUM+FCS (manufactured by Biowest) having a final concentration of 2%
Detection reagent: CELLTITER-GLO™ LUMINESCENT CELL VIABILITY ASSAY (trade name, manufactured by PROMEGA Corporation)
The CHO-K1 cells were seeded in a 96-well microplate for culture at 5,000 cells/well, and cultured in a CO2 incubator (37° C.) for 24 hours. An evaluation compound (final concentration: from 25.00 μmol/L to 0.20 μmol/L, common ratio: […]) was added thereto, followed by culturing for 24 hours, and the number of viable cells was calculated from emission intensity by CELLTITER-GLO™ (trade name, manufactured by PROMEGA Corporation). In the measurement of the emission intensity, VARIOSKAN FLASH (manufactured by Thermo Fisher Scientific Inc.) was used.
Inhibition ratio (%)=100−(A/B)×100
A: Emission intensity in the presence of a test compound
B: Emission intensity in the absence of a test compound

[3] = biological target: T2, human PI3Kα protein (Homo sapiens, UniProt P42336); assay: PI3Kα enzyme assay (ADP-Glo); type: biochemical; conditions: read-out: PI3Kα enzyme inhibitory activity
T2 construct: purchased Carna Biosciences, Inc; host or cells: baculovirus expression system
T2 sequence (P42336 whole entry): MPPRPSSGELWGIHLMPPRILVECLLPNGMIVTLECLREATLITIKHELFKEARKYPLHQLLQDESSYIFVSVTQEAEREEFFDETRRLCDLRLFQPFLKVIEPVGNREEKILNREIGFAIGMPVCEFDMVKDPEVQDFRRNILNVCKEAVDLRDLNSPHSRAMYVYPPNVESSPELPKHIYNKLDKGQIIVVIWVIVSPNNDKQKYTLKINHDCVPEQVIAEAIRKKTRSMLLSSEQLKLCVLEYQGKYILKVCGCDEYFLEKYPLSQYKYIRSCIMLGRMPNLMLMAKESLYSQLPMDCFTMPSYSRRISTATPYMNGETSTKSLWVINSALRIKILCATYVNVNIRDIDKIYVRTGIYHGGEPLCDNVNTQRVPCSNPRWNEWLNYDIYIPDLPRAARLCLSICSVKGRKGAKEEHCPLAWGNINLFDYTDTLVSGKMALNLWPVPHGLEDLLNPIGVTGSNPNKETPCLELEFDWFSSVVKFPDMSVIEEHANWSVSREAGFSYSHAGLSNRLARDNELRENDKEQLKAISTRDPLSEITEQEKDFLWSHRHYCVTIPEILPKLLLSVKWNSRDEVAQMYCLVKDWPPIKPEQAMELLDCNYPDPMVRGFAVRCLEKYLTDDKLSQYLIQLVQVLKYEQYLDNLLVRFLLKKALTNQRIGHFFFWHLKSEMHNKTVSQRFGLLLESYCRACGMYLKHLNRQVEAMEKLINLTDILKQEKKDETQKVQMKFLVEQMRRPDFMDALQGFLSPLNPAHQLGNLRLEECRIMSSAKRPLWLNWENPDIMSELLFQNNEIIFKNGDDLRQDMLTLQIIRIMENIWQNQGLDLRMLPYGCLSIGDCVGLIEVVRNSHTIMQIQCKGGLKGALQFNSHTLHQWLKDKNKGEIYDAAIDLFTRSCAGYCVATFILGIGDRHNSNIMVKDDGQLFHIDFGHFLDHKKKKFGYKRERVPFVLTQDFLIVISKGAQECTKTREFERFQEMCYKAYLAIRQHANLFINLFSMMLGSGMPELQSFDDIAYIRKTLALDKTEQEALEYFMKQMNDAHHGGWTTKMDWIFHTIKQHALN
T2 sequence (P27986 whole entry partner): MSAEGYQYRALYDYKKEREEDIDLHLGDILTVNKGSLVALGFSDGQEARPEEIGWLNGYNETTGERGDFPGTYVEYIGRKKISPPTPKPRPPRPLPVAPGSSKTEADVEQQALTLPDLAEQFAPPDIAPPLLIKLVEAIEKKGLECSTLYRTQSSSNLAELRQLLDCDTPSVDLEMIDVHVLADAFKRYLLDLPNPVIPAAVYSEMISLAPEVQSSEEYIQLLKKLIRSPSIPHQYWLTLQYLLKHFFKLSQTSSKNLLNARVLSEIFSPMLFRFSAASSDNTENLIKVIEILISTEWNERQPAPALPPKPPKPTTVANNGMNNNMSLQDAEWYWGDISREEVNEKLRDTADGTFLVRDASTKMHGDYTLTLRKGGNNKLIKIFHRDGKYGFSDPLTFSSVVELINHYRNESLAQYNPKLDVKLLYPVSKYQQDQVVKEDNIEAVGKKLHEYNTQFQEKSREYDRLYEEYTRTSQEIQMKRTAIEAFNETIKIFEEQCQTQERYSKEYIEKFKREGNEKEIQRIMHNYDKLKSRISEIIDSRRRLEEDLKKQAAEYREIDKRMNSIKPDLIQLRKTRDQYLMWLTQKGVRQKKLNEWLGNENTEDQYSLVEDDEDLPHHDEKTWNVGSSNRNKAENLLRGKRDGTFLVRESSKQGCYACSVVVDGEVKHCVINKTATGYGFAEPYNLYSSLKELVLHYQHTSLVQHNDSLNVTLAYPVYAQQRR
Outline: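 Biotinylated human PI3Kα (baculovirus-expressed, 4.5 nmol/L) pre-incubated 15 min with compound in Tris-HCl pH 7.5, MgCl2, BSA; reaction 60 min at 25° C with 50 μmol/L PIP2 and 100 μmol/L ATP final. ADP quantified by ADP-Glo luminescence; IC50 calculated.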

[4] = CHO-K1 cells, 24 hours culture with compound, CellTiter-Glo

Row | Structure (SMILES) | IC50 [1] [µM] | IC50 [3] [µM] | IC50 [2, 4] [µM] | IC50 ([2]; CHO-K1, 24 h) [µM]
1 | CC(C)c1cnnc(Nc2ccc3ncc(-c4cnn(CCCN5CCC(F)CC5)c4)cc3n2)c1 [Example 0413, 7-(1-(3-(4-Fluoropiperidin-1-yl)propyl)-1H-pyrazol-4-yl)-N-(5-isopropylpyridazin-3-yl)-1,5-naphthyridine-2-amine] | < 1 | < 1 | ≥ 25 | 
2 | CC(C)c1cnnc(Nc2ccc3ncc(-c4cnn(CCCN5CCS(=O)(=O)CC5)c4)cc3n2)c1 [Example 0417, 4-(3-(4-(6-((5-isopropylpyridazin-3-yl)amino)-1,5-naphthyridin-3-yl)-1H-pyrazol-1-yl)propyl)thiomorpholine 1,1-dioxide] | < 1 | < 1 | ≥ 25 | 
3 | CC(C)c1cnnc(Nc2ccc3ncc(-c4cnn(CCC(C)N5CCOCC5)c4)cc3n2)c1 (stereo not drawn) [Example 0418, N-(5-isopropylpyridazin-3-yl)-7-(1-(3-morpholinobutyl)-1H-pyrazol-4-yl)-1,5-naphthyridine-2-amine] | < 1 | < 1 | ≥ 25 | 
4 | CC(C)c1cnnc(Nc2ccc3ncc(-c4cnn(CCCN5CCSCC5)c4)cc3n2)c1 [Example 0420] | < 1 | < 1 | ≥ 25 | 
5 | CC(C)c1cnnc(Nc2ccc3ncc(-c4cnn(CCCN5CCCC5=O)c4)cc3n2)c1 [Example 0422] | < 1 | < 1 | ≥ 25 | 
6 | CC(C)c1cnnc(Nc2ccc3ncc(-c4cnn(CCCN5CCOCC5=O)c4)cc3n2)c1 [Example 0424] | < 1 | < 1 |  | ≥ 25
7 | CC(C)c1cnnc(Nc2ccc3ncc(-c4cnn(CCCN5C[C@@H](C)N(C)[C@@H](C)C5)c4)cc3n2)c1 [Example 0426, N-(5-isopropylpyridazin-3-yl)-7-(1-(3-((3S,5R)-3,4,5-trimethylpiperazin-1-yl)propyl)-1H-pyrazol-4-yl)-1,5-naphthyridine-2-amine] | < 1 | < 1 | ≥ 25 | 
8 | CC(C)c1cnnc(Nc2ccc3ncc(-c4cnn(CCCN5CCC(O)CC5)c4)cc3n2)c1 [Example 0430] | < 1 | < 1 | ≥ 25 | 
9 | Cc1nn(CCCN2C[C@@H](C)O[C@@H](C)C2)cc1-c1cnc2ccc(Nc3cc(C(C)C)cnn3)nc2c1 [Example 0431] | < 1 | < 1 | ≥ 25 | 
10 | CC(C)c1cnnc(Nc2ccc3ncc(-c4cnn(CCCN5[C@H](C)CCC[C@@H]5C)c4)cc3n2)c1 [Example 0432] | < 1 | < 1 | ≥ 25 | 
11 | CC(C)c1cnnc(Nc2ccc3ncc(-c4cnn(CCCN5C[C@@H](C)N[C@@H](C)C5)c4)cc3n2)c1 [Example 0439, 7-(1-(3-((3S,5R)-3,5-dimethylpiperazin-1-yl)propyl)-1H-pyrazol-4-yl)-N-(5-isopropylpyridazin-3-yl)-1,5-naphthyridine-2-amine] | < 1 | < 1 | ≥ 25 | 
12 | CC(=O)N1CC(n2cc(-c3cnc4ccc(Nc5cc(C(C)C)cnn5)nc4c3)cn2)C1 [Example 0443] | < 1 | < 1 | ≥ 25 | 
13 | CC(C)c1cnnc(Nc2ccc3ncc(-c4cnn(Cc5cocn5)c4)cc3n2)c1 [Example 0450] | < 1 | < 1 | ≥ 25 | 
14 | CC(C)c1cnnc(Nc2ccc3ncc(-c4cn(C)nc4-c4ccc(C#N)nc4)cc3n2)c1 [Example 0455] | < 1 | < 1 | ≥ 25 | 
15 | COc1ccc(-c2nn(C)cc2-c2cnc3ccc(Nc4cc(C(C)C)cnn4)nc3c2)cn1 [Example 0456] | < 1 | < 1 | ≥ 25 | 
16 | CC(C)c1cnnc(Nc2ccc3ncc(-c4cnn(CC(F)(F)F)c4)cc3n2)c1 [Example 0460] | < 1 | < 1 | ≥ 25 | 
17 | CC(C)c1cnnc(Nc2ccc3ncc(-c4cnn(Cc5ccc(N6CCOCC6)nc5)c4)cc3n2)c1 [Example 0462, N-(5-isopropylpyridazin-3-yl)-7-(1-((6-morpholinopyridin-3-yl)methyl)-1H-pyrazol-4-yl)-1,5-naphthyridine-2-amine] | < 1 | < 1 | ≥ 25 | 
18 | FC(F)(F)Cn1cc(-c2cnc3ccc(Nc4cc(C5CC5)cnn4)nc3c2)cn1 [Example 0465, N-(5-cyclopropylpyridazin-3-yl)-7-(1-(2,2,2-trifluoroethyl)-1H-pyrazol-4-yl)-1,5-naphthyridine-2-amine] | < 1 | < 1 | ≥ 25 | 
19 | CC(C)c1cnnc(Nc2ccc3ncc(-c4cnn(C5CCN(S(C)(=O)=O)CC5)c4)cc3n2)c1 [Example 0479] | < 1 | < 1 | ≥ 25 | 
20 | CC(C)c1cnnc(Nc2ccc3ncc(-c4cnn(CC5CCOCC5)c4)cc3n2)c1 [Example 0482] | < 1 | < 1 | ≥ 25 | 
21 | CC(C)c1cnnc(Nc2ccc3ncc(-c4cnn(CC5CCN(C)CC5)c4)cc3n2)c1 [Example 0486, N-(5-isopropylpyridazin-3-yl)-7-(1-((1-methylpiperidin-4-yl)methyl)-1H-pyrazol-4-yl)-1,5-naphthyridine-2-amine] | < 1 | < 1 | ≥ 25 | 
22 | CC(C)c1cnnc(Nc2ccc3ncc(-c4cnn(CCC5CCN(C)CC5)c4)cc3n2)c1 [Example 0487, N-(5-isopropylpyridazin-3-yl)-7-(1-(2-(1-methylpiperidin-4-yl)ethyl)-1H-pyrazol-4-yl)-1,5-naphthyridine-2-amine] | < 1 | < 1 | ≥ 25 | 
23 | CC(C)c1cnnc(Nc2ccc3ncc(-c4cnn(C5CN(C)C5)c4)cc3n2)c1 [Example 0490] | < 1 | < 1 | ≥ 25 | 
24 | CC(C)c1cnnc(Nc2ccc3ncc(-c4cnn(CC5CN(C)C5)c4)cc3n2)c1 [Example 0491] | < 1 | < 1 | ≥ 25 | 

More lines, main results first:

Row | IC50 [1] [µM] | IC50 [3] [µM] | Structure (SMILES) | IC50 [2, 4] [µM] | IC50 ([2]; CHO-K1, 24 h) [µM]
25 | < 1 | < 1 | CC(C)c1cnnc(Nc2ccc3ncc(-c4cnn([C@H]5CCN(C)C5)c4)cc3n2)c1 [Example 0492] | ≥ 25 | 
26 | < 1 | < 1 | CC(C)c1cnnc(Nc2ccc3ncc(-c4cnn([C@@H]5CCN(C)C5)c4)cc3n2)c1 [Example 0493] | ≥ 25 | 
27 | < 1 | < 1 | CCN(c1cnnc(Nc2ccc3ncc(-c4cnn(C)c4)cc3n2)c1)C(C)C [Example 0500] | ≥ 25 | 
28 | < 1 | 1 to 10 | CC(C)c1cnnc(Nc2ccc3ncc(-n4ccnc4)cc3n2)c1 [Example 0510, 7-(1H-imidazol-1-yl)-N-(5-isopropylpyridazin-3-yl)-1,5-naphthyridine-2-amine] | ≥ 25 | 
29 | < 1 | < 1 | CC(C)c1cnnc(Nc2ccc3ncc(-c4cn(C)nc4-c4cccnc4)cc3n2)c1 [Example 0515] | ≥ 25 | 
30 | < 1 | < 1 | CCN(CC)c1cnnc(Nc2ccc3ncc(-c4cnn(C)c4)cc3n2)c1 [Example 0517] | ≥ 25 | 
31 | < 1 | < 1 | CC(C)c1cnnc(Nc2ccc3ncc(-c4cnn(CC5CCN(S(C)(=O)=O)CC5)c4)cc3n2)c1 [Example 0530] | ≥ 25 | 
32 | < 1 | < 1 | CC(C)c1cnnc(Nc2ccc3ncc(-c4c[nH]nc4-c4cccnc4)cc3n2)c1 [Example 0545] | ≥ 25 | 
33 | < 1 | < 1 | CC(C)c1cnnc(Nc2ccc3ncc(-c4cnn(CC(=O)N(C)C)c4)cc3n2)c1 [Example 0549, 2-(4-(6-((5-Isopropylpyridazin-3-yl)amino)-1,5-naphthyridin-3-yl)-1H-pyrazol-1-yl)-N,N-dimethylacetamide] | ≥ 25 | 
34 | < 1 | < 1 | CC(C)c1cnnc(Nc2ccc3ncc(-c4cnn(CCCS(C)(=O)=O)c4)cc3n2)c1 [Example 0550] | ≥ 25 | 
35 | < 1 | < 1 | CC(C)c1cnnc(Nc2ccc3ncc(-c4cn(C)nc4-c4ccncc4)cc3n2)c1 [Example 0552] | ≥ 25 | 
